The values below come from patent US10836789B2, “Inhibitors of glucocorticoid receptor” (ORIC Pharmaceuticals, Inc., priority 2016, dated 2020).

Structures are written as SMILES.

The first assay addresses T1, GR (Homo sapiens, UniProt P04150).
T1 construct: expressed in transfected cells; host or cells: CHO cells carrying GR and an MMTV-luciferase reporter
T1 sequence (P04150 1-777): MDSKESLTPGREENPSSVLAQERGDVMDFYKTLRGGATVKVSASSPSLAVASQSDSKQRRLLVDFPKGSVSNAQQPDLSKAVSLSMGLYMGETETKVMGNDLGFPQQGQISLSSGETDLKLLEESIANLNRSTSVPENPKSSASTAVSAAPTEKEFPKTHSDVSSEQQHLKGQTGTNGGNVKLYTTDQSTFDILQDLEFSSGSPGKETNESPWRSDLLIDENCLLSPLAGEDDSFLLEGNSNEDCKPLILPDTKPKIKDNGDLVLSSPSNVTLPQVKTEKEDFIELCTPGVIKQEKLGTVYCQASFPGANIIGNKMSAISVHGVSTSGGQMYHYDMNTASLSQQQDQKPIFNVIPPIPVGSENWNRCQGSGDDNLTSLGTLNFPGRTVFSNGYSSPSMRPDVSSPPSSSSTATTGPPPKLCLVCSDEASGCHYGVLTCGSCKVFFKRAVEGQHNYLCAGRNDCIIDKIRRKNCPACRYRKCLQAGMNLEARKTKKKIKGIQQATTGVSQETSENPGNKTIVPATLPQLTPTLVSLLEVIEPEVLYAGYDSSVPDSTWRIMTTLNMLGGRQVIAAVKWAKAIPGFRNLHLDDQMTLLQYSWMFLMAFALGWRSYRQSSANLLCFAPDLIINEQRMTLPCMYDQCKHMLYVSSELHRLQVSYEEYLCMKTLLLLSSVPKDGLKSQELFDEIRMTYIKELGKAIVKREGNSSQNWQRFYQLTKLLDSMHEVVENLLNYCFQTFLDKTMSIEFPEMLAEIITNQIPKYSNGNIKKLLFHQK
Description: GR luciferase antagonist assay (CHO/GR/MMTV Luciferase cells). The assay is classed as cell-based. Particulars: 10 nM Dexamethasone final, 16-18 h. The method, then: Example A: […] GR Luciferase Assay Cell Line: CHO/GR/MMTV Luciferase Culture Media: DMEM (with phenol red)+10% FBS Assay Media: DMEM (without phenol red)+10% CSS A 1×10 cm plate of cells was split into 2×15 cm plates in Assay Media (CSS). After 4 days, the cells in the Assay Media were collected and counted. Antagonist Assay: 1.5×10^4 cells per well were plated in a 384-well white walled TC plate in 20 ul of Assay Media containing 12.5 nM Dexamethasone (final concentration=10 nM). The plates were covered with film to avoid evaporation and placed in a TC incubator. Media/drug dilutions were prepared in Assay Media in 96-well sterile plates. 100 ul of Assay Media was distributed in aliquots into 96-well plates with an 8-Channel pipette (20-200 ul). 0.5 ul of 1000× concentration of compounds were added to the plates with 8-Channel pipette (0.5-10 ul). The plates were shaken for 15 seconds to mix. The film was removed from the 384-well plates with assay cells. 5 ul of media/drug dilutions were added to appropriate wells. The plates were covered with film to avoid evaporation and placed in a TC incubator overnight. After 16-18 h in the incubator, the plates were removed and sat at room temperature for 10 minutes to equilibrate. The Reagent Dispenser was setup to distribute 25 ul aliquots of OneGlo Luciferase Reagent (at room temperature) to each well of the 384-well plate using standard cassette. After OneGlo was added to the plates, the plates were shaken briefly, then incubated in the dark at room temperature for about 3 minutes. The plates were read using a Tecan or Promega luminometer. The ability of the compounds disclosed herein to inhibit GR activity was quantified and the respective IC50 value was determined. Table 3 provides the cellular IC50 values of various substituted steroidal compounds disclosed herein.
In general, IC50 refers to the concentration at which inhibition is half-maximal. A high value points to weaker potency in that assay. Turning to `CC#C[C@]1(O)CC[C@H]2[C@@H]3CCC4=CC(=O)CC[C@]4(C)[C@H]3[C@@H](c3ccc(N(C)C)c(F)c3)C[C@@]21C` [Compound 32], the half-inhibitory concentration (IC50) was above 0.1 µM. As for `CC#C[C@]1(O)CC[C@H]2[C@@H]3CCC4=CC(=O)CC[C@]4(C)[C@H]3[C@@H](c3ccc(NC(C)C)cc3)C[C@@]21C` [Compound 30, (8S,9R,10R,11S,13S,14S,17S)-17-Hydroxy-11-(4-(isopropylamino)phenyl)-10,13-dimethyl-17-(prop-1-yn-1-yl)-1,2,6,7,8,9,10,11,12,13,14,15,16,17-tetradecahydro-3H-cyclopenta[a]phenanthren-3-one], the IC50 was above 0.1 µM.

For `CC(C)N(C)c1ccc([C@H]2C[C@@]3(C)[C@@H](CC[C@@]3(O)C#CC(C)(C)C)[C@@H]3CCC4=CC(=O)CC[C@@H]4[C@H]32)cc1F` [Compound 15, (8R,9S,10R,11S,13S,14S,17S)-17-(3,3-Dimethylbut-1-yn-1-yl)-11-(3-fluoro-4-(isopropyl(methyl)amino)phenyl)-17-hydroxy-13-methyl-1,2,6,7,8,9,10,11,12,13,14,15,16,17-tetradecahydro-3H-cyclopenta[a]phenanthren-3-one], the IC50 is at most 0.1 µM. On the same count and under the same terms, the same measure for `CC(C)(C)C#C[C@]1(O)CC[C@H]2[C@@H]3CCC4=CC(=O)CC[C@@H]4[C@H]3[C@@H](c3ccc(N4CCS(=O)(=O)CC4)cc3)C[C@@]21C` [Compound 22]: at most 0.1 µM. `CC(C)N(C)c1ccc([C@H]2C[C@@]3(C)[C@@H](CC[C@@]3(O)C#CC3CC3)[C@@H]3CCC4=CC(=O)CC[C@]4(C)[C@H]32)cc1` [Compound 21, (8S,9R,10R,11S,13S,14S,17S)-17-(Cyclopropylethynyl)-17-hydroxy-11-(4-(isopropyl(methyl)amino)phenyl)-10,13-dimethyl-1,2,6,7,8,9,10,11,12,13,14,15,16,17-tetradecahydro-3H-cyclopenta[a]phenanthren-3-one] gave an IC50 of at most 0.1 µM. On the same count and under the same terms, the same measure for `CC#C[C@]1(O)CC[C@H]2[C@@H]3CCC4=CC(=O)CC[C@]4(C)[C@H]3[C@@H](c3ccc(NC)cc3)C[C@@]21C` [Compound 23]: above 0.1 µM; for `CC#C[C@]1(O)CC[C@H]2[C@@H]3CCC4=CC(=O)CC[C@]4(C)[C@H]3[C@@H](c3ccc(-n4cccc4)cc3)C[C@@]21C` [Compound 31, (8S,9R,10R,11S,13S,14S,17S)-11-(4-(1H-Pyrrol-1-yl)phenyl)-17-hydroxy-10,13-dimethyl-17-(prop-1-yn-1-yl)-1,2,6,7,8,9,10,11,12,13,14,15,16,17-tetradecahydro-3H-cyclopenta[a]phenanthren-3-one]: at most 0.1 µM; for `C[C@]12CCC(=O)C=C1CC[C@@H]1[C@@H]2[C@@H](c2ccc(N3CCCC3)cc2)C[C@@]2(C)[C@H]1CC[C@@]2(O)C#CC(F)(F)F` [Compound 29]: at most 0.1 µM. Still for that read-out and setting: the same measure for `CC(C)N(C)c1ccc([C@H]2C[C@@]3(C)[C@@H](CC[C@@]3(O)C#CC(C)(C)C)[C@@H]3CCC4=CC(=O)CC[C@]4(C)[C@H]32)cc1` [Compound 16]: above 0.1 µM; for `CCN(CC)c1ccc([C@H]2C[C@@]3(C)[C@@H](CC[C@@]3(O)C#CC(C)(C)C)[C@@H]3CCC4=CC(=O)CC[C@@H]4[C@H]32)cc1` [Compound 9, (8R,9S,10R,11S,13S,14S,17S)-11-(4-(Diethylamino)phenyl)-17-(3,3-dimethylbut-1-yn-1-yl)-17-hydroxy-13-methyl-1,2,6,7,8,9,10,11,12,13,14,15,16,17-tetradecahydro-3H-cyclopenta[a]phenanthren-3-one]: at most 0.1 µM. On the same count and under the same terms, as for `CC(C)(C)C#C[C@]1(O)CC[C@H]2[C@@H]3CCC4=CC(=O)CC[C@@H]4[C@H]3[C@@H](c3ccc(N4CCN(S(C)(=O)=O)CC4)cc3)C[C@@]21C` [Compound 27], the figure is at most 0.1 µM; as for `CCC#C[C@]1(O)CC[C@H]2[C@@H]3CCC4=CC(=O)CC[C@]4(C)[C@H]3[C@@H](c3ccc(NC)cc3)C[C@@]21C` [Compound 12], above 0.1 µM; as for `CC(C)(C)C#C[C@]1(O)CC[C@H]2[C@@H]3CCC4=CC(=O)CC[C@@H]4[C@H]3[C@@H](c3ccc4c(c3)OCO4)C[C@@]21C` [Compound 5, (8R,9S,10R,11S,13S,14S,17S)-11-(Benzo[d][1,3]dioxol-5-yl)-17-(3,3-dimethylbut-1-yn-1-yl)-17-hydroxy-13-methyl-1,2,6,7,8,9,10,11,12,13,14,15,16,17-tetradecahydro-3H-cyclopenta[a]phenanthren-3-one], at most 0.1 µM.

Turning to `CC(C)(C)C#C[C@]1(O)CC[C@H]2[C@@H]3CCC4=CC(=O)CC[C@@H]4[C@H]3[C@@H](c3ccc4c(c3)OCCO4)C[C@@]21C` [Compound 3, (8R,9S,10R,11S,13S,14S,17S)-11-(2,3-Dihydrobenzo[b][1,4]dioxin-6-yl)-17-(3,3-dimethylbut-1-yn-1-yl)-17-hydroxy-13-methyl-1,2,6,7,8,9,10,11,12,13,14,15,16,17-tetradecahydro-3H-cyclopenta[a]phenanthren-3-one], the IC50 was at most 0.1 µM.

For the molecule `CC(C)(C)C#C[C@]1(O)CC[C@H]2[C@@H]3CCC4=CC(=O)CC[C@@H]4[C@H]3[C@@H](c3ccc(N)cc3)C[C@@]21C` [Compound 13, (8R,9S,10R,11S,13S,14S,17S)-11-(4-Aminophenyl)-17-(3,3-dimethylbut-1-yn-1-yl)-17-hydroxy-13-methyl-1,2,6,7,8,9,10,11,12,13,14,15,16,17-tetradecahydro-3H-cyclopenta[a]phenanthren-3-one], the IC50 is at most 0.1 µM. On the same count and under the same terms, as for `CC#C[C@]1(O)CC[C@H]2[C@@H]3CCC4=CC(=O)CC[C@]4(C)[C@H]3[C@@H](c3ccc(N)cc3)C[C@@]21C` [Compound 26, (8S,9R,10R,11S,13S,14S,17S)-11-(4-Aminophenyl)-17-hydroxy-10,13-dimethyl-17-(prop-1-yn-1-yl)-1,2,6,7,8,9,10,11,12,13,14,15,16,17-tetradecahydro-3H-cyclopenta[a]phenanthren-3-one], the figure is above 0.1 µM; as for `CC(=O)N1CCN(c2ccc([C@H]3C[C@@]4(C)[C@@H](CC[C@@]4(O)C#CC(C)(C)C)[C@@H]4CCC5=CC(=O)CC[C@@H]5[C@H]43)cc2)CC1` [Compound 24], at most 0.1 µM; as for `C[C@]12CCC(=O)C=C1CC[C@@H]1[C@@H]2[C@@H](c2ccc(N3CCCC3)cc2)C[C@@]2(C)[C@H]1CC[C@@]2(O)C#CC1CC1` [Compound 28], above 0.1 µM.

Another assay deals with AR. In words: AR agonism assay in LNAR reporter cell line. The assay is classed as cell-based. Particulars: LNAR cells (overexpressed AR, 4XARE-Luc), 10% CSS, 18-24 hrs; Mifepristone maximum response set to 1. The method, then: Example B: In Vitro AR Agonism Assay
The AR agonism assay was done in the LNAR reporter cell line which has overexpressed AR and 4XARE-Luc genes. This cell line is sensitive to even minor partial AR agonism activity in hormone-deprived media (CSS). The assays were done in RPMI (without phenol red)+10% CSS using 6000 LNAR cells/well in 384-well plates and compounds were incubated with cells in […] incubator for 18-24 hrs. OneGlo reagent (25 uL/well) was added and plates were read with luminometer within 3 minutes.
To gauge the AR partial agonism activity, Mifepristone is included as a standard in the assay. AR agonism assay results are quantified by determining the ratio of the maximum response of individual compounds to the maximum response of Mifepristone (arbitrarily set to 1). Values of Table 4 are reported as Relative Maximum Response to Mifepristone. This general trend of AR agonism was shown for the class of compounds described herein.
For the molecule `CC#C[C@]1(O)CC[C@H]2[C@@H]3CCC4=CC(=O)CC[C@]4(C)[C@H]3[C@@H](c3ccc(N(C)C)c(F)c3)C[C@@]21C` [Compound 32], the “Relative Maximum Response to Mifepristone” value was “A (A: ≤ 0.4)”. Still for that read-out and setting: the same measure for `CC(C)(C)C#C[C@]1(O)CC[C@H]2[C@@H]3CCC4=CC(=O)CC[C@@H]4[C@H]3[C@@H](c3ccc(N4CCS(=O)(=O)CC4)cc3)C[C@@]21C` [Compound 22]: “A (A: ≤ 0.4)”; for `CC(C)N(C)c1ccc([C@H]2C[C@@]3(C)[C@@H](CC[C@@]3(O)C#CC3CC3)[C@@H]3CCC4=CC(=O)CC[C@]4(C)[C@H]32)cc1` [Compound 21, (8S,9R,10R,11S,13S,14S,17S)-17-(Cyclopropylethynyl)-17-hydroxy-11-(4-(isopropyl(methyl)amino)phenyl)-10,13-dimethyl-1,2,6,7,8,9,10,11,12,13,14,15,16,17-tetradecahydro-3H-cyclopenta[a]phenanthren-3-one]: “A (A: ≤ 0.4)”.

Staying with this assay, now noted: in concentrations as low as 10 nM.
Turning to `CC#C[C@]1(O)CC[C@H]2[C@@H]3CCC4=CC(=O)CCC4=C3[C@@H](c3ccc(N(C)C)cc3)C[C@@]21C` [Mifepristone, reference compound], the “partial AR agonism” value is reported as “strong partial AR agonism”.
